Among the data in patent US20260374756A1, “HETEROCYCLIC COMPOUNDS AS INHIBITORS OF MONOACYLGLYCEROL LIPASE (MAGL)” (Hoffmann-La Roche Inc., priority 2022, published 2026) are IC50 values, retold here.

The structures appear in SMILES notation.

This assay addresses T1, hMAGL (Homo sapiens, UniProt Q99685).
T1 sequence (Q99685 1-303): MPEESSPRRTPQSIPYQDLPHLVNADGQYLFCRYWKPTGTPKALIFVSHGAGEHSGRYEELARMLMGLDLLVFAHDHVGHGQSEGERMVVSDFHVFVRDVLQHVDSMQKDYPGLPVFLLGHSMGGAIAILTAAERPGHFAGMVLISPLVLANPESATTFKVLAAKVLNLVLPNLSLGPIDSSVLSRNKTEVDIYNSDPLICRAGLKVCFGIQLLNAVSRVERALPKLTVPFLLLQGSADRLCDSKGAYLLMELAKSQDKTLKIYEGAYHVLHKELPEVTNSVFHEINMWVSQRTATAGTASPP
The assay can be described thus: 2-AG assay: MAGL inhibition, hydrolysis of 2-arachidonoylglycerol to arachidonic acid followed by mass spectrometry. It is filed as biochemical. In outline:
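Read-out is LC-MS/MS of arachidonic acid released from 2-arachidonoylglycerol (8 μM final), normalised to d8-arachidonic acid internal standard after acetonitrile quench. Enzyme […] and compound were pre-mixed 15 min, then reacted 30 min, both at RT, in Tris/EDTA buffer with 0.01% Tween-20 and 2.5% DMSO.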
In general, IC50 refers to the concentration that gives 50% inhibition. Consider `O=C(N1CC2(CC(n3cnc(C(F)(F)F)n3)C2)C1)N1CC2(CN(Cc3cnn(C(F)(F)F)c3)C2)C1` [Example 181, [6-[[1-(trifluoromethyl)pyrazol-4-yl]methyl]-2,6-diazaspiro[3.3]heptan-2-yl]-[6-[3-(trifluoromethyl)-1,2,4-triazol-1-yl]-2-azaspiro[3.3]heptan-2-yl]methanone], for which the IC50 is 133 nM.
For `O=C(N1CC2(CC(Cn3ncnc3C(F)(F)F)C2)C1)N1CC2(CC(n3cnc(C4CC4)n3)C2)C1` [Example 345, [6-(3-cyclopropyl-1,2,4-triazol-1-yl)-2-azaspiro[3.3]heptan-2-yl]-[6-[[5-(trifluoromethyl)-1,2,4-triazol-1-yl]methyl]-2-azaspiro[3.3]heptan-2-yl]methanone] the value was 2.22 nM.
To `O=C(N1CC2(CCN(Cc3ncc(C(F)F)s3)CC2)C1)N1CC2(CC(n3cnc(C(F)(F)F)n3)C2)C1` [Example 31, [7-[[5-(difluoromethyl)thiazol-2-yl]methyl]-2,7-diazaspiro[3.5]nonan-2-yl]-[6-[3-(trifluoromethyl)-1,2,4-triazol-1-yl]-2-azaspiro[3.3]heptan-2-yl]methanone] belongs 13.1 nM; to `O=C(N1CC2(CC(Cn3cnc(C(F)(F)F)n3)C2)C1)N1CC2(CC(n3cnc(C4(O)CC4)n3)C2)C1` [Example 128, [6-[3-(1-hydroxycyclopropyl)-1,2,4-triazol-1-yl]-2-azaspiro[3.3]heptan-2-yl]-[6-[[3-(trifluoromethyl)-1,2,4-triazol-1-yl]methyl]-2-azaspiro[3.3]heptan-2-yl]methanone], 9.98 nM.
To `O=C(N1CC2(CC(Cc3cnn4cc(C(F)(F)F)cnc34)C2)C1)N1CC2(CC(n3cnc(C4CC4)n3)C2)C1` [Example 360, [6-(3-cyclopropyl-1,2,4-triazol-1-yl)-2-azaspiro[3.3]heptan-2-yl]-[6-[[6-(trifluoromethyl)pyrazolo[1,5-a]pyrimidin-3-yl]methyl]-2-azaspiro[3.3]heptan-2-yl]methanone] belongs 0.3 nM.
With `O=C(N1CC2(CC(Cc3n[nH]c(C4CC4)n3)C2)C1)N1CC2(CC(n3cnc(C4CC4)n3)C2)C1` [Example 304, [6-(3-cyclopropyl-1,2,4-triazol-1-yl)-2-azaspiro[3.3]heptan-2-yl]-[6-[(5-cyclopropyl-1H-1,2,4-triazol-3-yl)methyl]-2-azaspiro[3.3]heptan-2-yl]methanone], the IC50 was 1.82 nM.
To `O=C(N1CC2(CC(Cc3cn(CC(F)(F)F)nc3C(F)(F)F)C2)C1)N1CC2(CC(n3cnc(C4(O)CC4)n3)C2)C1` [Example 120, [6-[3-(1-hydroxycyclopropyl)-1,2,4-triazol-1-yl]-2-azaspiro[3.3]heptan-2-yl]-[6-[[1-(2,2,2-trifluoroethyl)-3-(trifluoromethyl)pyrazol-4-yl]methyl]-2-azaspiro[3.3]heptan-2-yl]methanone] belongs 0.81 nM.
For `O=C(N1CC2(CC(Cc3n[nH]c(C4(C(F)(F)F)CC4)n3)C2)C1)N1CC2(CC(n3cnc(C(F)F)n3)C2)C1` [Example 335, [6-[3-(difluoromethyl)-1,2,4-triazol-1-yl]-2-azaspiro[3.3]heptan-2-yl]-[6-[[5-[1-(trifluoromethyl)cyclopropyl]-1H-1,2,4-triazol-3-yl]methyl]-2-azaspiro[3.3]heptan-2-yl]methanone] the value was 9.06 nM.
To `O=C(N1CC2(CC(n3cnc(C(F)(F)F)n3)C2)C1)N1CC2(CN(Cc3cc[nH]n3)C2)C1` [Example 284, [6-(1H-pyrazol-3-ylmethyl)-2,6-diazaspiro[3.3]heptan-2-yl]-[6-[3-(trifluoromethyl)-1,2,4-triazol-1-yl]-2-azaspiro[3.3]heptan-2-yl]methanone] belongs 2310 nM; to `O=C(N1CC2(CCN(Cc3cc(C(F)(F)F)sn3)CC2)C1)N1CC2(CC(n3cnc(C(F)(F)F)n3)C2)C1` [Example 46, [7-[[5-(trifluoromethyl)isothiazol-3-yl]methyl]-2,7-diazaspiro[3.5]nonan-2-yl]-[6-[3-(trifluoromethyl)-1,2,4-triazol-1-yl]-2-azaspiro[3.3]heptan-2-yl]methanone], 11 nM; to `O=C(N1CC2(CC(Cn3ccc(C4CC4)n3)C2)C1)N1CC2(CC(n3cnc(C(F)(F)F)n3)C2)C1` [Example 142, [6-[(3-cyclopropylpyrazol-1-yl)methyl]-2-azaspiro[3.3]heptan-2-yl]-[6-[3-(trifluoromethyl)-1,2,4-triazol-1-yl]-2-azaspiro[3.3]heptan-2-yl]methanone], 0.94 nM.
Consider `Cc1cc(C2CC2)nn1CC1CC2(C1)CN(C(=O)N1CC3(CC(n4cnc(C(F)(F)F)n4)C3)C1)C2` [Example 134, [6-[(3-cyclopropyl-5-methyl-pyrazol-1-yl)methyl]-2-azaspiro[3.3]heptan-2-yl]-[6-[3-(trifluoromethyl)-1,2,4-triazol-1-yl]-2-azaspiro[3.3]heptan-2-yl]methanone], for which it took 1.07 nM to reach half-maximal inhibition (IC50).
Take `O=C(N1CC2(CC(c3cc(C4CC4)n[nH]3)C2)C1)N1CC2(CN(Cc3nc(C(F)(F)F)no3)C2)C1` [Example 171, [6-(3-cyclopropyl-1H-pyrazol-5-yl)-2-azaspiro[3.3]heptan-2-yl]-[6-[[3-(trifluoromethyl)-1,2,4-oxadiazol-5-yl]methyl]-2,6-diazaspiro[3.3]heptan-2-yl]methanone]: the IC50 came out at 9.95 nM.
For `O=C(N1CC2(CC(Cn3nccc3C(F)(F)F)C2)C1)N1CC2(CC(c3cc(C4(O)CC4)n[nH]3)C2)C1` [Example 5] the value was 1.7 nM; for `O=C(N1CC2(CC(Cn3cnc(C4(C(F)(F)F)CC4)n3)C2)C1)N1CC2(CC(c3cc(C4CC4)n[nH]3)C2)C1` [Example 74, [6-(3-cyclopropyl-1H-pyrazol-5-yl)-2-azaspiro[3.3]heptan-2-yl]-[6-[[3-[1-(trifluoromethyl)cyclopropyl]-1,2,4-triazol-1-yl]methyl]-2-azaspiro[3.3]heptan-2-yl]methanone], 0.42 nM; for `O=C(N1CC2(CC(Cc3nc(C(F)(F)F)co3)C2)C1)N1CC2(CC(n3cnc(C4(O)CC4)n3)C2)C1` [Example 23, [6-[3-(1-hydroxycyclopropyl)-1,2,4-triazol-1-yl]-2-azaspiro[3.3]heptan-2-yl]-[6-[[4-(trifluoromethyl)oxazol-2-yl]methyl]-2-azaspiro[3.3]heptan-2-yl]methanone], 24.5 nM.
To `CC(C)(C)c1nnc(CN2CC3(C2)CN(C(=O)N2CC4(CC(n5cnc(C6(O)CC6)n5)C4)C2)C3)s1` [Example 210, [6-[(5-tert-butyl-1,3,4-thiadiazol-2-yl)methyl]-2,6-diazaspiro[3.3]heptan-2-yl]-[6-[3-(1-hydroxycyclopropyl)-1,2,4-triazol-1-yl]-2-azaspiro[3.3]heptan-2-yl]methanone] belongs 28 nM; to `O=C(N1CC2(CC(n3cnc(C(F)(F)F)n3)C2)C1)N1CC2(CN(Cc3sncc3C(F)(F)F)C2)C1` [Example 178, [6-[[4-(trifluoromethyl)isothiazol-5-yl]methyl]-2,6-diazaspiro[3.3]heptan-2-yl]-[6-[3-(trifluoromethyl)-1,2,4-triazol-1-yl]-2-azaspiro[3.3]heptan-2-yl]methanone], 10.5 nM; to `CC(C)(C)c1conc1CN1CC2(C1)CN(C(=O)N1CC3(CC(n4cnc(C(F)(F)F)n4)C3)C1)C2` [Example 255, [6-[(4-tert-butylisoxazol-3-yl)methyl]-2,6-diazaspiro[3.3]heptan-2-yl]-[6-[3-(trifluoromethyl)-1,2,4-triazol-1-yl]-2-azaspiro[3.3]heptan-2-yl]methanone], 18.7 nM.
With `O=C(N1CC2(CC(Cc3n[nH]c(C(F)(F)F)n3)C2)C1)N1CC2(CC(n3cnc(C4CC4)n3)C2)C1` [Example 10], the IC50 was 1.96 nM.
For `Cc1cc(C(F)F)nn1CC1CC2(C1)CN(C(=O)N1CC3(CC(n4cnc(C(F)(F)F)n4)C3)C1)C2` [Example 94] the value was 0.4 nM; for `O=C(N1CC2(CC(n3cnc(C(F)(F)F)n3)C2)C1)N1CC2(CN(Cc3ccn(C(F)(F)F)n3)C2)C1` [Example 116, [6-[[1-(trifluoromethyl)pyrazol-3-yl]methyl]-2,6-diazaspiro[3.3]heptan-2-yl]-[6-[3-(trifluoromethyl)-1,2,4-triazol-1-yl]-2-azaspiro[3.3]heptan-2-yl]methanone], 161 nM; for `O=C(N1CC2(CC(n3cnc(C4CC4)n3)C2)C1)N1CC2(CN(Cc3ccn(C(F)(F)F)n3)C2)C1` [Example 117, [6-(3-cyclopropyl-1,2,4-triazol-1-yl)-2-azaspiro[3.3]heptan-2-yl]-[6-[[1-(trifluoromethyl)pyrazol-3-yl]methyl]-2,6-diazaspiro[3.3]heptan-2-yl]methanone], 16 nM.
For `Cc1onc(C2CC2)c1CN1CC2(C1)CN(C(=O)N1CC3(CC(n4cnc(C5CC5)n4)C3)C1)C2` [Example 268, [6-[(3-cyclopropyl-5-methyl-isoxazol-4-yl)methyl]-2,6-diazaspiro[3.3]heptan-2-yl]-[6-(3-cyclopropyl-1,2,4-triazol-1-yl)-2-azaspiro[3.3]heptan-2-yl]methanone] the value was 8.8 nM; for `O=C(N1CC2(CC(n3cnc(C4(O)CC4)n3)C2)C1)N1CC2(CN(Cc3cc(C(F)(F)F)sn3)C2)C1` [Example 155, [6-[3-(1-hydroxycyclopropyl)-1,2,4-triazol-1-yl]-2-azaspiro[3.3]heptan-2-yl]-[6-[[5-(trifluoromethyl)isothiazol-3-yl]methyl]-2,6-diazaspiro[3.3]heptan-2-yl]methanone], 86.8 nM.
